Target: Aldo-keto reductase family 1 member B1 (Homo sapiens, UniProt P15121)
Assay: Enzyme Inhibition Assay
Settings: pH 6.2; 30 °C
Protocol: The activity of the test enzyme was determined spectrophotometrically by monitoring the change in absorbance at 340 nm, which is due to the oxidation of NADPH or the reduction of NAD+ catalyzed by ALR2. The determination of the IC50 values was performed by using linear regression analysis of the log dose response curve.

IC50 [µM]	SMILES
10	O=C(O)CN1C(=O)c2c(ccc3ccccc23)S1(=O)=O [2-(3,5,5-trioxo-5-thia-4-azatricyclo[7.4.0.0^{2,6}]trideca-1,6,8,10,12-pentaen-4-yl)acetic acid]
100	Nc1cccc2c3c(ccc12)S(=O)(=O)N(CC(=O)O)C3=O [2-(10-amino-3,5,5-trioxo-5-thia-4-azatricyclo[7.4.0.0^{2,6}]trideca-1,6,8,10,12-pentaen-4-yl)acetic acid]
180	O=C(O)CN1C(=O)c2c(ccc3c([N+](=O)[O-])cccc23)S1(=O)=O [2-(10-nitro-3,5,5-trioxo-5-thia-4-azatricyclo[7.4.0.0^{2,6}]trideca-1,6,8,10,12-pentaen-4-yl)acetic acid]
100	Nc1cccc2ccc3c(c12)C(=O)N(CC(=O)O)S3(=O)=O [2-(13-amino-3,5,5-trioxo-5-thia-4-azatricyclo[7.4.0.0^{2,6}]trideca-1,6,8,10,12-pentaen-4-yl)acetic acid]
190	O=C(O)CN1C(=O)c2c(ccc3cccc([N+](=O)[O-])c23)S1(=O)=O [2-(13-nitro-3,5,5-trioxo-5-thia-4-azatricyclo[7.4.0.0^{2,6}]trideca-1,6,8,10,12-pentaen-4-yl)acetic acid]
0.14	O=C(O)CN1C(=O)c2c(c(C(=O)O)cc3ccccc23)S1(=O)=O [2-(carboxymethyl)-1-oxo-1,2-dihydronaphtho[1,2-d]isothiazole-4-carboxylic acid 3,3-dioxide]
0.55	O=C(O)COC(=O)c1cc2ccccc2c2c1S(=O)(=O)N(CC(=O)O)C2=O [2-{[4-(carboxymethyl)-3,5,5-trioxo-5-thia-4-azatricyclo[7.4.0.0^{2,6}]trideca-1,6,8,10,12-pentaen-7-yl]carbonyloxy}acetic acid]
88	CN1C(=O)c2c(c(C(=O)O)cc3ccccc23)S1(=O)=O [4-methyl-3,5,5-trioxo-5-thia-4-azatricyclo[7.4.0.0^{2,6}]trideca-1,6,8,10,12-pentaene-7-carboxylic acid]

Source: BindingDB's records for doi:10.1016/j.jmb.2007.03.021 (University of Marburg, 2007)
